Values joined by “and” are separate entries in the source; they are usually repeats but may differ in a detail not shown here. Equal values may be shown once.
Test system: A498 complex spheroids with HUVEC/MSC, growth
Assay: Anticancer human tumor A498 cell line growth inhibition [AhR];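 also: seven day exposure starting three days after spheroid seeding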;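 as to viability, T/C: luminescence signal used as a surrogate for viable cells; luminescence viability scaled so 100% equals DMSO vehicle wells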
Conditions: for viability, T/C: stronger effect = lower value
Text: Multicellular complex tumor spheroid response to aryl hydrocarbon receptor antagonists in combination with a variety of drugs and investigational agents in selected tumor cell lines
The current study was undertaken to assess response to aryl hydrocarbon receptor antagonists in combination with standard-of-care drugs and investigational agents in solid tumor complex spheroid models. Complex spheroids include a stromal component modeled by human endothelial cells (HUVEC) and fibroblasts modeled by human mesenchymal stem cells (MSCs). The concentration ranges selected for each drug and investigational agent were based upon clinically achievable concentrations if the clinical Cmax of the agent was known.
Compounds. The drugs and investigational agents: BAY 2416964 (NSC825713), GNF351 (NSC835774), CH-223191 (NSC835775), CPI-455 (NSC825282), aza-TdCyd (NSC777586), decitabine (NSC127716), belinostat (NSC758774), entinostat (NSC756642), pevonedistat (NSC761192), tazemetostat (NSC777109), talazoparib (NSC765396), olaparib (NSC753686), selinexor (NSC780203), nedisertib (M3814, NSC802822), bortezomib (NSC756655), venetoclax (NSC766270), doxorubicin (NSC123127), elimusertib (BAY189344, NSC800525), ceralasertib (AZD6738, NSC777638), TAK-243 (NSC785004), alisertib (NSC759677), etoposide (NSC141540), topotecan (NSC609699), eribulin (NSC707389), gemcitabine (NSC613327), carboplatin (NSC241240), cisplatin (NSC119875), and SN-38 (NSC673596) were obtained from the National Cancer Institute (NCI) Developmental Therapeutics Program Chemical Repository (32). The FDA-approved anticancer drug set is available from the Developmental Therapeutics Program at https://dtp.cancer.gov/organization/dscb/obtaining/available plates.htm. […] The stock solutions were prepared in dimethyl sulfoxide (DMSO, Sigma-Aldrich, St. Louis, MO, cat. D2650), except for the platinum compounds which were prepared in saline (Quality Biological, Gaithersburg, MD, cat. 114-055-101), at 800-fold the tested concentration and stored at -70 degrees C prior to their use. All drugs and investigational agents were tested over a range starting from a high concentration at or near the clinical Cmax and decreasing in half-log increments. If the clinical Cmax for an agent had not been determined, the highest concentration tested was 10 microM (Table 1).
Cell Culture. All cells were maintained in an incubator at 37 degrees C and 5% CO2 with 95% humidity. The PDC lines were cultured according to standard operating procedures established by the NCI PDMR (https://pdmr.cancer.gov). Briefly, all PDCs were thawed and cultured in Matrigel-coated flasks prepared with a working solution of 1X Ham's F-12 nutrient mix, without supplementation (Invitrogen, Waltham, MA, cat. 11765054), 100 U/mL penicillin-streptomycin (Invitrogen, cat. 15140122), and 2.5% Matrigel (Corning Inc., Corning, NY, cat. 354248) for the first three passages. All PDCs were cultured in complete DMEM/F-12 media containing advanced DMEM/F-12 (Invitrogen, cat. 12634028), 4.9% defined fetal bovine serum, heat inactivated (HyClone Laboratories Inc., Logan, UT, cat. SH30070.03HI), 389 ng/mL hydrocortisone (Sigma-Aldrich, cat. H4001), 9.7 ng/mL human EGF recombinant protein (Invitrogen, cat. PHG0313), 23.4 microg/mL adenine (Sigma-Aldrich, cat. A2786), 97.3 U/mL penicillin-streptomycin (Invitrogen, cat. 15140122), 1.9 mM L-glutamine (Invitrogen, cat. 25030081), and 9.7 microM Y-27632 dihydrochloride (Tocris Bioscience, Bristol, United Kingdom, cat. 1254). The PDCs were cultured in complete DMEM/F12 media without 10 microM Y-27632 dihydrochloride for at least two passages prior to the screen. The established cell lines NCI-H1341 and […] were cultured in DMEM/F-12, HEPES (Invitrogen, cat. 11330032), 5% defined fetal bovine serum (HyClone Laboratories Inc., cat. SH30070.03), ITS premix universal culture supplement [insulin (5 microg/mL), transferrin (5 microg/mL), and selenious acid (5 ng/mL)] […]

With `CC(C)CC(NC(=O)C(Cc1ccccc1)NC(=O)c1cnccn1)B(O)O` (stereo unspecified) the viability, T/C (compound 0.000949 µM) was 103% and 105% and 98.6%, the viability, T/C (compound 0.003 µM) was 106% and 99.9% and 58.5% and the viability, T/C (compound 0.00949 µM) was 6.74% and 11.6% and 2.52%. The viability, T/C (compound 0.03 µM) was 1.23% and 2.41% and 0.68%, the viability, T/C (compound 0.0949 µM) was 0.52% and 1.47% and 1.32% and the viability, T/C (compound 0.3 µM) was 0.53% and 0.64% and 0.32%. For the same molecule, the IC50 (curve of compound) was 5.7 nM and 5.75 nM and 3.57 nM.

In the case of `CC(C)c1c(-c2ccccc2)nc2c(C#N)c[nH]n2c1=O`, the viability, T/C (compound 0.0316 µM) is reported as 109% and 96.5% and 102%, the viability, T/C (compound 0.1 µM) is reported as 113% and 109% and 96% and the viability, T/C (compound 0.316 µM) is reported as 104% and 105% and 96.3%. The viability, T/C (compound 1 µM) was 99.8% and 104% and 97.1%, the viability, T/C (compound 3.16 µM) was 102% (2×) and 98.6% and the viability, T/C (compound 10 µM) was 106% and 112% and 96.8%. For the same molecule, the IC50 (curve of compound) was greater than 10000 nM.

For `CC(CO)NC(=O)c1cc(-c2ccc(Cl)cc2)nn(-c2cnn(C)c2)c1=O` (stereo unspecified), the viability, T/C (compound 0.1 µM) was 92.3% [middle of 20 runs], the viability, T/C (compound 0.316 µM) was 90.5% [middle of 21 runs] and the viability, T/C (compound 1 µM) was 85.9% [middle of 21 runs]. The viability, T/C (compound 3.16 µM) was 83.2% [middle of 19 runs], the viability, T/C (compound 10 µM) was 68.4% [middle of 19 runs] and the IC50 (compound alone, run of 08/08/2022) was greater than 10000 nM.

`CC1(C)CCC(CN2CCN(c3ccc(C(=O)NS(=O)(=O)c4ccc(NCC5CCOCC5)c([N+](=O)[O-])c4)c(Oc4cnc5[nH]ccc5c4)c3)CC2)=C(c2ccc(Cl)cc2)C1` was tested, and the viability, T/C (compound 0.0316 µM) was 99.2% and 106% and 101%, the viability, T/C (compound 0.1 µM) was 115% and 103% and 98.6% and the viability, T/C (compound 0.316 µM) was 96.3% and 101% and 95.3%. The viability, T/C (compound 1 µM) was 86.8% and 94.5% and 92.4%, the viability, T/C (compound 3.16 µM) was 80.8% and 86% and 84.5% and the viability, T/C (compound 10 µM) was 28.3% and 56.8% and 25.5%. The IC50 (curve of compound) was 6010 nM and > 10000 nM and 6170 nM.

In the case of `CC1COCCN1c1cc(-c2ccnn2C)c2ccnc(-c3ccn[nH]3)c2n1` (stereo unspecified), the viability, T/C (compound 0.00316 µM) is reported as 108% and 93.8% and 98.7%, the viability, T/C (compound 0.01 µM) is reported as 111% and 87.4% and 102% and the viability, T/C (compound 0.0316 µM) is reported as 95.7% and 68.2% and 82.7%. For the same molecule, the viability, T/C (compound 0.1 µM) was 64.3% and 61.4% and 47.2%, the viability, T/C (compound 0.316 µM) was 32.3% and 25.7% and 21% and the viability, T/C (compound 1 µM) was 22.3% and 15.8% and 13.9%. For the same molecule, the IC50 (curve of compound) was 167 nM and 121 nM and 90.9 nM.

With `CC1COCCN1c1cc(C2(S(C)(=N)=O)CC2)nc(-c2ccnc3[nH]ccc23)n1` (stereo unspecified) the viability, T/C (compound 0.0316 µM) was 106% and 101% (2×), the viability, T/C (compound 0.1 µM) was 111% and 103% and 107% and the viability, T/C (compound 0.316 µM) was 104% and 99.8% and 95.7%. For the same molecule, the viability, T/C (compound 1 µM) was 92.2% and 72.5% and 72.7%, the viability, T/C (compound 3.16 µM) was 61% and 46.5% and 37% and the viability, T/C (compound 10 µM) was 29% and 24.8% and 19.5%. The IC50 (curve of compound) was 4680 nM and 2570 nM and 2070 nM.

With `CCN(c1cc(-c2ccc(CN3CCOCC3)cc2)cc(C(=O)NCc2c(C)cc(C)[nH]c2=O)c1C)C1CCOCC1` the viability, T/C (compound 0.00949 µM) was 105% and 107% and 106%, the viability, T/C (compound 0.03 µM) was 106% (2×) and 107% and the viability, T/C (compound 0.0949 µM) was 107% and 109% and 106%. The viability, T/C (compound 0.3 µM) was 102% (2×) and 97.8%, the viability, T/C (compound 0.949 µM) was 101% and 104% and 108% and the viability, T/C (compound 3 µM) was 103% and 104% and 110%. It also gave an IC50 (curve of compound) greater than 3000 nM.

With `CC[C@@]1(O)C(=O)OCc2c1cc1n(c2=O)Cc2cc3c(CN(C)C)c(O)ccc3nc2-1` the viability, T/C (compound 0.000316 µM) was 97.9% and 107% and 110%, the viability, T/C (compound 0.001 µM) was 103% and 111% and 112% and the viability, T/C (compound 0.00316 µM) was 112% and 102% (2×). For the same molecule, the viability, T/C (compound 0.01 µM) was 86.9% and 93.3% and 98.7%, the viability, T/C (compound 0.0316 µM) was 79.8% and 82.3% and 85.8% and the viability, T/C (compound 0.1 µM) was 73.1% and 85% and 66.5%. It also gave an IC50 (curve of compound) greater than 100 nM.

In the case of `CCc1c2c(nc3ccc(O)cc13)-c1cc3c(c(=O)n1C2)COC(=O)[C@]3(O)CC`, the viability, T/C (compound 0.000949 µM) is reported as 87% and 101% and 90.7%, the viability, T/C (compound 0.003 µM) is reported as 85.5% and 93.3% and 84.1% and the viability, T/C (compound 0.00949 µM) is reported as 65.7% and 84% and 61.2%. The viability, T/C (compound 0.03 µM) was 58.1% and 70.1% and 45.5%, the viability, T/C (compound 0.0949 µM) was 42.9% and 49.1% and 37.1% and the viability, T/C (compound 0.3 µM) was 33.4% and 41.5% and 29.9%. The IC50 (curve of compound) was 51.1 nM and 109 nM and 21.9 nM.

For `COc1cc(C2c3cc4c(cc3C(OC3OC5COC(C)OC5C(O)C3O)C3COC(=O)C23)OCO4)cc(OC)c1O` (stereo unspecified), the viability, T/C (compound 0.0316 µM) was 93% and 80.8% and 89.6%, the viability, T/C (compound 0.1 µM) was 85.5% and 80.2% and 81.8% and the viability, T/C (compound 0.316 µM) was 78.7% and 63.3% and 72.5%. For the same molecule, the viability, T/C (compound 1 µM) was 71.5% and 64% and 69.3%, the viability, T/C (compound 3.16 µM) was 66.6% and 52.6% and 68.2% and the viability, T/C (compound 10 µM) was 51.8% and 40% and 56.3%. The IC50 (curve of compound) was > 10000 nM and 3710 nM.

For `COc1cc(Nc2ncc3c(n2)-c2ccc(Cl)cc2C(c2c(F)cccc2OC)=NC3)ccc1C(=O)O`, the viability, T/C (compound 0.0316 µM) was 80.4% and 74.9% and 66.8%, the viability, T/C (compound 0.1 µM) was 75.4% and 73.6% and 76.6% and the viability, T/C (compound 0.316 µM) was 72.2% and 71.5% and 58.7%. The viability, T/C (compound 1 µM) was 55.6% and 60.1% and 52.7%, the viability, T/C (compound 3.16 µM) was 50% and 51.6% and 46% and the viability, T/C (compound 10 µM) was 38.7% and 36% and 35.6%. For the same molecule, the IC50 (curve of compound) was 2480 nM and 3420 nM and 1500 nM.
